The record followed here is PubChem BioAssay AID602185 (Broad Institute, 2012).

Activity calls are given as the source filed them.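 The calls were made as follows: active = compounds curbing yeast growth with fitted half-effect dose at most twice their top tested dose; inconclusive = flat fit at 30 to 70% inhibition, or poor fit; inactive = the rest.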

Experiment [1] deals with Candida glabrata growth in glucose, OD600, 48 h. Briefly: C. glabrata growth inhibition on glucose, dose response, glucose medium, OD600, dry powder (AID 602185).
Assay in experiment [2]: as above
As to conditions: Candida glabrata growth in glucose, OD600, 48 h, hits give low values.

Consider `O=C(Nc1nc(-c2ccccn2)cs1)c1ccc(Br)s1`, for which the AC50 – broadly, the concentration giving half of the maximal activity seen – in experiment [1] was 8.64 µM.
As for `O=C(Nc1nc(-c2ccccc2)cs1)c1ccc(Br)s1`, the max activity, negative = growth inhibition in experiment [2] (at 0.3 µM) is 11.1% (inactive).
`O=C(Nc1nc(-c2ccccn2)cs1)c1ccc(Cl)s1`: in experiment [1], the AC50 is 9.57 µM.
Consider `O=C(Nc1nnc(-c2ccc3c(c2)CCCC3)o1)c1ccc(Cl)cc1Cl`, for which, in experiment [2] (at 0.16 µM), the max activity, negative = growth inhibition is 21% (inactive).
On to `O=C(Nc1nc(-c2ccc3c(c2)CCCC3)cs1)c1ccccc1`, for which, in experiment [2] (at 0.3 µM), the max activity, negative = growth inhibition was 19.6% (inactive).
For `CN1CCN(C(c2ccc(C(F)(F)F)cc2)c2ccc3cccnc3c2O)CC1` (centres undefined), the AC50 in experiment [1] was 2.18 µM.
Still for that read-out and setting: for `C=CCNC(=S)N/N=C(\C)c1ccccn1` the value was 6.14 µM.
Regarding `Oc1c(CN2CCc3ccccc3C2)cc(Cl)c2cccnc12`, the max activity, negative = growth inhibition in experiment [2] (at 10 µM) was 15.2% (inactive).
In the case of `CCOC(=O)N1C(=O)C2(CCCCC2)N(c2ccc(C)cc2)C1=S`, the max activity, negative = growth inhibition in experiment [2] (at 0.08 µM) is 13.5% (inactive).
Turning to `Oc1c(CN2CCN(c3ccccc3)CC2)cc(Cl)c2cccnc12`, the max activity, negative = growth inhibition in experiment [2] (at 0.35 µM) is 12.9% (inactive).
As for `C/C(=N\NC(=O)c1cc2ccccc2cc1O)c1ccccn1`, the max activity, negative = growth inhibition in experiment [2] (at 5 µM) is 18.8% (inactive).
As to `Cc1cc(C)n(-c2nc3ccccc3c(=O)n2OCC#N)n1`, the max activity, negative = growth inhibition in experiment [2] (at 19.5 µM) is -17.9% (inactive).
Regarding `CCCC(=O)NC(c1cccs1)c1cc(Cl)c2cccnc2c1O` (centres undefined), the AC50 in experiment [1] is 3.27 µM.
For the molecule `Oc1c(C(c2ccc(Cl)cc2)N2CCCC2)ccc2cccnc12` (centres undefined), the max activity, negative = growth inhibition in experiment [2] (at 1.2 µM) was 12% (inactive).
With `Cc1ccc(C(=O)Nc2nnc(-c3ccccc3)o2)cc1C`, the max activity, negative = growth inhibition in experiment [2] (at 0.16 µM) was 18.7% (inactive).
Regarding `Cc1ccc(C(=O)Nc2nc(-c3ccccn3)cs2)cc1`, the max activity, negative = growth inhibition in experiment [2] (at 19.5 µM) was -34.8% (inactive).
In the case of `Oc1c(C(c2ccccc2Cl)N2CCCCC2)ccc2cccnc12` (centres undefined), in experiment [2] (at 19.5 µM), the max activity, negative = growth inhibition is -24.3% (inactive).
For `O=C(NNC(=S)Nc1ccc(Cl)c(Cl)c1)c1ccccn1`, in experiment [1], the AC50 is 10.1 µM.
Take `O=C(Nc1nc(-c2ccccn2)cs1)c1ccccc1`: the max activity, negative = growth inhibition in experiment [2] (at 19.5 µM) is -14.7% (inactive).
As for `O=C(Oc1c(Cl)cc(Cl)c2cccnc12)c1ccco1`, the AC50 in experiment [1] is 1.14 µM.
Regarding `O=C(Nc1nnc(-c2ccc3c(c2)CCCC3)o1)c1ccccc1`, in experiment [2] (at 2.6 µM), the max activity, negative = growth inhibition was -10.5% (inactive).
On the same count and under the same terms, the result for `NC(=O)c1cccc(C(=O)Nc2nc(-c3ccc4c(c3)CCCC4)cs2)c1` reads 14.1% (inactive).
Regarding `COc1ccc(-c2nnc(NC(=O)c3ccc(S(=O)(=O)N4CCCc5ccccc54)cc3)o2)cc1`, in experiment [2] (at 0.3 µM), the max activity, negative = growth inhibition was 12.6% (inactive).
For `Cc1ccc(-c2nc3c(Cl)cc(Cl)cc3c(=O)n2O)cc1`, in experiment [1], the AC50 is 1.75 µM.
